Data: patent US5602101A, “Antithrombotic agents” (priority 1994, dated 1997)

Key:
Human Plasma [1] = experiment: Anticoagulation in human plasma, prothrombin time (PT); format: biochemical; conditions: concentration required to double the PT
Method: (§1) Dog plasma and rat plasma are obtained from conscious mixed-breed hounds (either sex, Hazelton-LRE, Kalamazoo, Mich., U.S.A.) or from anesthetized male Sprague-Dawley rats (Harlan Sprague-Dawley, Inc., Indianapolis, Ind., U.S.A.) by venipuncture into 3.8 percent citrate. Fibrinogen is prepared from in-date ACD human blood as the fraction I-2 according to previous procedures and specifications. Smith, Biochem. Chem. […] Human fibrinogen is also purchased as 98 percent pure/plasmin free from American Diagnostics, Greenwich, Conn. Coagulation reagents ACTIN, Thromboplastin, and Human plasma are from Baxter Healthcare Corp., Dade Division, Miami, Fla. Bovine thrombin from Parke-Davis (Ann Arbor, Mich.) is used for coagulation assays in plasma. Coagulation assay procedures are as previously described. Smith, et al., Thrombosis Research, 5, 163-174 (1988). A CoAScreener coagulation instrument (American LABor, Inc.) is used for all coagulation assay measurements. The prothrombin time (PT) is measured by adding 0.05 ml saline and 0.05 ml Thromboplastin-C reagent to 0.05 ml test plasma. The activated partial thromboplastin time (APTT) is measured by incubation of 0.05 ml test plasma with 0.05 ml Actin reagent for 120 seconds followed by 0.05 ml CaCl2 (0.02M). […] The compounds of formula I are added to human or animal plasma over a wide range of concentrations to determine prolongation effects on the APTT, PT, and TT assays. Linear extrapolations are performed to estimate the concentrations required to double the clotting time for each assay.

Human Plasma [2] = experiment: Anticoagulation in human plasma, thrombin time (TT); format: biochemical; conditions: concentration required to double the thrombin time
Method: as §1

Human Plasma [3] = experiment: Anticoagulation in human plasma, activated partial thromboplastin time (APTT); format: biochemical; conditions: concentration required to double the APTT
Method: as §1

Bovine trypsin = target: T1, Bovine trypsin (Bos taurus, UniProt P00760); experiment: Serine protease inhibition, trypsin (chromogenic substrate), Kass; format: biochemical; conditions: substrate N-Benzoyl-Phe-Val-Arg-p-nitroanilide
T1 construct: Bovine trypsin is purchased from Worthington Biochemicals, Freehold, N.J; purchased Worthington Biochemicals, Freehold, N.J
T1 sequence (P00760 24-246): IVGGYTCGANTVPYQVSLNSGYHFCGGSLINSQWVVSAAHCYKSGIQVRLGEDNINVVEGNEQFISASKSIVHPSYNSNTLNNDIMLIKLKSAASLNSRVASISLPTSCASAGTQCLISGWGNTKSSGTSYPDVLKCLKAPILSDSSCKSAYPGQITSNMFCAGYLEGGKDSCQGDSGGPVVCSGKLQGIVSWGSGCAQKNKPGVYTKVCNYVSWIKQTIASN
Method: (§2) The assay is carried out by mixing 50 μl buffer (0.03M Tris, 0.15M NaCl, pH 7.4), 25 μl of human thrombin solution (purified human thrombin Enzyme Research Laboratories, South Bend, Ind.) at 8 NIH units/ml and 25 μl of test compound in a solvent (50% aqueous methanol (v:v)). Then 150 μl of an aqueous solution of the chromogenic substrate (at 0.25 mg/ml) are added and the rates of hydrolysis of the substrate are measured by monitoring the reactions at 405 nm for the release of p-nitroaniline. Standard curves are constructed by plotting free thrombin concentration against hydrolysis rate. The hydrolysis rates observed with test compounds are then converted to "free thrombin" values in the respective assays by use of the standard curves. The bound thrombin (bound to test compound) is calculated by subtracting the amount of free thrombin observed in each assay from the known initial amount of thrombin used in the assay. The amount of free inhibitor in each assay is calculated by subtracting the number of moles of bound thrombin from the number of moles of added inhibitor (test compound).
(§3) Kass is calculated for a range of concentrations of test compounds and the mean value is reported in units of liter per mole.
(§4) By substantially following the procedures described above for human thrombin, and using other human blood coagulation system serine proteases, and using fibrinolytic system serine proteases, with the appropriate chromogenic substrate, identified below, selectivity of the compounds of the present invention with respect to the coagulation factor serine proteases and to the fibrinolytic serine proteases are evaluated as well as their substantial lack of interference with human plasma clot fibrinolysis.
(§5) Human factors X, Xa, IXa, XIa, and xIIa are purchased from Enzyme Research Laboratories, South Bend, Ind.; human urokinase from Leo Pharmaceuticals, Denmark; and recombinant activated Protein C (aPC) is prepared at Eli Lilly and Co. substantially according to U.S. Pat. No. 4,981,952 incorporated by reference herein in its entirety. Chromogenic substrates: N-Benzoyl-Ile-Glu-Gly-Arg-p-nitroanilide (for factor Xa); N-Cbz-D-Arg-Gly-Arg-p-nitroanilide (for factor IXa assay as the factor Xa substrate) pyroglutamyl-Pro-Arg-p-nitroanilide (for factor XIa and for aPC); H-D-Pro-Phe-Arg-p-nitroanilide (for factor XIIa); and pyroglutamyl-Gly-Arg-p-nitroanilide (for urokinase); are purchased from KabiVitrum, Stockholm, Sweden, or from Midwest Biotech, Fishers, Indiana. Bovine trypsin is purchased from Worthington Biochemicals, Freehold, N.J., and human plasma kallikrein from Kabi Vitrum, Stockholm, Sweden. N-Benzoyl-Phe-Val-Arg-p-nitroanilide, the substrate for human thrombin and for trypsin, is synthesized according to procedures described above for the compounds of the present invention, known methods of peptide coupling from commercially available reactants, or was purchased from Midwest Biotech, Fishers, Ind. Human plasmin is purchased from Boehringer Mannheim, Indianapolis, Ind.; nt-PA is purchased as single chain activity reference from American Diagnostics, Greenwich, Conn.; modified-t-PA6 (mt-PA6) is prepared at Eli Lilly and Company by procedure known in the art (See, Burck, et al., J. Biol. Chem., 265, […] (1990). Plasmin chromogenic substrate H-D-Val-Leu-Lys-p-nitroanilide and tissue plasminegen activator (t-PA) substrate H-D-Ile-Pro-Arg-p-nitroanilide are purchased from Kabi Vitrum, Stockholm, Sweden.

[4] = Index of bioavailability (plasma TT AUC, p.o. vs i.v.); conditions: rats, adjusted for dose
Method: Male Sprague Dawley rats (350-425 gm, Harlan Sprague Dawley Inc., Indianapolis, Ind.) are anesthetized with xylazine (20 mg/kg, s.c.) and ketamine (120 mg/kg, s.c.) and maintained on a heated water blanket (37° C.). The jugular vein(s) is cannulated to allow for infusions.
Plasma thrombin time (TT) and activated partial thromboplastin time (APTT) are measured with a fibrometer. Blood is sampled from a jugular catheter and collected in syringe containing sodium citrate (3.8%, 1 part to 9 parts blood). To measure TT, rat plasma (0.1 ml) is mixed with saline (0.1 ml) and bovine thrombin (0.1 ml, 30 U/ml in TRIS buffer; Parke Davis) at 37° C. For APTT, plasma (0.1 ml) and APTT solution (0.1 ml, Organon Teknika are incubated for 5 minutes (37° C.) and CaCl2 (0.01 ml, 0,025M) is added to start coagulation. Assays are done in duplicate and averaged.
The time course of the effect of the thrombin inhibitor upon TT is determined after i.v bolus administration to anesthetized rats and after oral treatment of fasted conscious rats. Due to limitations of blood volume and the number of points required to determine the time course from time of treatment to the time when the response returns to pretreatment values, two populations of rats are used. Each sample population represents alternating sequential time points. The average TT over the time course is used to calculate area under the curve (AUC). The index of bioavailability is calculated by the formula shown below and is expressed as percent relative activity.
The area under the curve (AUC) of the plasma TT time course is determined and adjusted for the dose. This index of bioavailability is termed "% Relative Activity" and is calculated as [formula]
Compound solutions are prepared fresh daily in normal saline and are injected as a bolus or are infused starting 15 min before and continuing throughout the experimental perturbation which is 15 minutes in the arteriovenous shunt model and 60 minutes in the FeCl3 model of arterial injury and in the spontaneous thrombolysis model. Bolus injection volume is 1 ml/kg for i.v., and 5 ml/kg for p.o. and infusion volume is 3 ml/hr.

Human plasmin = target: T2, Human plasmin (Homo sapiens, UniProt P00747); experiment: Serine protease inhibition, plasmin (chromogenic substrate), Kass; format: biochemical; conditions: substrate H-D-Val-Leu-Lys-p-nitroanilide
T2 construct: Human plasmin is purchased from Boehringer Mannheim, Indianapolis, Ind; purchased Boehringer Mannheim, Indianapolis, Ind
Method: as §2, §3, §4, §5

factor Xa = target: T3, factor Xa (Homo sapiens, UniProt P00742); experiment: Serine protease inhibition, factor Xa (chromogenic substrate), Kass; format: biochemical; conditions: substrate N-Benzoyl-Ile-Glu-Gly-Arg-p-nitroanilide
T3 construct: Human factors X, Xa, IXa, XIa, and xIIa are purchased from Enzyme Research Laboratories; purchased Enzyme Research Laboratories, South Bend, Ind
Method: as §2, §3, §4, §5

human thrombin = target: T4, human thrombin (Homo sapiens, UniProt P00734); experiment: Inhibition of amidase activity of thrombin (chromogenic substrate), Kass; format: biochemical; conditions: substrate N-benzoyl-Phe-Val-Arg-p-nitroanilide, pH 7.4
T4 construct: purified human thrombin Enzyme Research Laboratories, South Bend, Ind; purchased Enzyme Research Laboratories, South Bend, Ind
Method: as §2
The Kass value is the hypothetical equilibrium constant for the reaction between thrombin and the test compound (I). [drawing 53]
as §3

[5] = target: T5, tissue plasminogen activator (t-PA) (Homo sapiens, UniProt P00750); experiment: Serine protease inhibition, t-PA (chromogenic substrate), Kass; format: biochemical; conditions: for Enzyme Kass, t-Pa: substrate H-D-Ile-Pro-Arg-p-nitroanilide
T5 construct: purchased American Diagnostics, Greenwich, Conn
Method: as §2, §3, §4, §5

T5 sequence (P00750 36-562): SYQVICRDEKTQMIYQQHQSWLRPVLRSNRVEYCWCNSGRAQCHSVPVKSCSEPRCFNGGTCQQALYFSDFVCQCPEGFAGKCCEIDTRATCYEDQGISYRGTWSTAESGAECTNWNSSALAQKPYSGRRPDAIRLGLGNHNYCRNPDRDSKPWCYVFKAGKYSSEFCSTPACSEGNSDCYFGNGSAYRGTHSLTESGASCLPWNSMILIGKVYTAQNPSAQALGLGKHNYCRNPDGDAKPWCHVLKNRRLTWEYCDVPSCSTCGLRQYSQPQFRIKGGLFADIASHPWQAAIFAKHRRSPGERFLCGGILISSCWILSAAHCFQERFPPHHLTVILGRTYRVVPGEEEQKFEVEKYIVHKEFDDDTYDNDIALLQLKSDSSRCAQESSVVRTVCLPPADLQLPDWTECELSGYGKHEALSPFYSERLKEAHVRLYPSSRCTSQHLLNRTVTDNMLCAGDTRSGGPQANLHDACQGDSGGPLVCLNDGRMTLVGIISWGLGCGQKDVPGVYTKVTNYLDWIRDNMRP
T2 sequence (P00747 581-810 limits assumed): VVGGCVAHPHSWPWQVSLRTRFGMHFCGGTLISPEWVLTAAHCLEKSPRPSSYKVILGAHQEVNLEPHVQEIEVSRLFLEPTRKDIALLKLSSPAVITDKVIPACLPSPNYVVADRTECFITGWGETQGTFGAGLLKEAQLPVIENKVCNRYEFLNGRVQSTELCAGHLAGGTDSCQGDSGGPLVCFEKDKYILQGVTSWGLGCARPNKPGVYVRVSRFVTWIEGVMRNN
T2 sequence (P00747 97-580 partner limits assumed): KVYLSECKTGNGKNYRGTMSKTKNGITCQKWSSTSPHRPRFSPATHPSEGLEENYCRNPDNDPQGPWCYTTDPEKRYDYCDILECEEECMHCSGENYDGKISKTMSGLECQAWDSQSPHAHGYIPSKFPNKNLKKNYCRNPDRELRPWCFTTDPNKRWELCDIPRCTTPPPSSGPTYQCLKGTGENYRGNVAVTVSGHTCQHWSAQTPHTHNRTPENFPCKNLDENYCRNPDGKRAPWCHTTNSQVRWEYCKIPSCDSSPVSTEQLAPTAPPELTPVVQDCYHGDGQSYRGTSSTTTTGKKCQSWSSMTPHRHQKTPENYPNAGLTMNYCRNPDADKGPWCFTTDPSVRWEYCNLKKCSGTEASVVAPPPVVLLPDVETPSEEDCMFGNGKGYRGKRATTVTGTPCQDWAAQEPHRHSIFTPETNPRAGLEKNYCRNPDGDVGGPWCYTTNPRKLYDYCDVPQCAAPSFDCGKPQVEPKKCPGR
T3 sequence (P00742 235-488 limits assumed): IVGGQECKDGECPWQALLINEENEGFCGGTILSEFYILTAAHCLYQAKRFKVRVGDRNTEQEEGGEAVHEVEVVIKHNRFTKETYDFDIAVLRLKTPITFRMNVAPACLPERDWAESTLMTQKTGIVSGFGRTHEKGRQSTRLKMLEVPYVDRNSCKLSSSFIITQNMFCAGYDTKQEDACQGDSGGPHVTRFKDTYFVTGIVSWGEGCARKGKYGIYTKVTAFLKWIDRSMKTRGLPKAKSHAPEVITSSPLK
T3 sequence (P00742 41-179 partner limits assumed): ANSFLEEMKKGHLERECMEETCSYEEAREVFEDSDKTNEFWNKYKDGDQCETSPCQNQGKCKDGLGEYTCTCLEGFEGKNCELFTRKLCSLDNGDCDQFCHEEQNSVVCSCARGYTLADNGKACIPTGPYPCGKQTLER

Row | Structure (SMILES) | 2 × Clotting time, PT (Human Plasma [1]) | 2 × Clotting time, TT (Human Plasma [2]) [ng/mL] | 2 × Clotting time, APTT (Human Plasma [3]) | Enzyme Kass, Trypsin (Bovine trypsin) [L/mol × 10^6] | Index of Bioavailability, % Relative Activity [4] [%] | Enzyme Kass, Plasmin (Human plasmin) [L/mol × 10^6] | Enzyme Kass, Xa (factor Xa) [L/mol × 10^6] | Enzyme Kass, Human Thrombin (human thrombin) | Enzyme Kass, t-Pa [5] [L/mol × 10^6] | t-Pa inhibition ([5]; at 13 μg/mL) [%]
1 | Cl.N=C(N)NCCC[C@@H](C=O)NC(=O)[C@@H]1CCCN1C(=O)[C@@H](Cc1ccccc1)NCC1CCCCC1 [Example 30, cyclohexyl-CH2 -D-phe-pro-Arg-H.HCl] | 1,200 ng/ML | 16 | 860 ng/mL | 69 | 1 | 0.49 | 0.11 | 480 L/mol × 10^6 | 0.046 | 
2 | CCOC(=O)N[C@H](Cc1ccccc1)C(=O)N1CCC[C@H]1C(=O)N[C@H](C=O)CCCNC(=N)N.Cl [Example 33, EtOCO-D-Phe-Pro-Arg-H.HCl] | 2,000 ng/ML | 22 | 390 ng/mL | 240 | 14 | 16 | 2.3 | 170 L/mol × 10^6 | 2.5 | 
3 | Cl.NC(N)=NCCCC(C=O)NC(=O)C1CCCN1C(=O)C(Cc1ccccc1)NC(=O)c1ccc2ccccc2n1 (stereo not drawn) [Example 2] | 1,400 ng/ML | 35 | 1,100 ng/ML | 22 | 1 | 0.55 | 0.16 | 110 L/mol × 10^6 | 0.32 | 
4 | Cl.N=C(N)NCCC[C@@H](C=O)NC(=O)[C@@H]1CCCN1C(=O)[C@@H](Cc1ccccc1)NS(=O)(=O)c1ccccc1 [Example 13, PhSO2 -D-Phe-Pro-Arg-H.HCl] | 930 ng/mL | 14 | 450 ng/mL | 180 | 3 | 19 | 3.6 | 270 L/mol × 10^6 | 2.3 | 
5 | Cl.N=C(N)NCCC[C@@H](C=O)NC(=O)[C@@H]1CCCN1C(=O)[C@@H](Cc1ccccc1)NS(=O)(=O)c1ccc(F)cc1F [Example 14, 2,4-F-PhSO2 -D-Phe-Pro-Arg-H-HCl] | 940 ng/mL | 21 | 350 ng/mL | 160 | 6 | 25 | 11 | 230 L/mol × 10^6 | 2.4 | 
6 | CCCS(=O)(=O)N[C@H](Cc1ccccc1)C(=O)N1CCC[C@H]1C(=O)N[C@H](C=O)CCCNC(=N)N.Cl [Example 9, n-Pr-SO2 -D-Phe-Pro-Arg-H.HCl] | 510 ng/mL | 6 | 220 ng/mL | 480 | 14 | 29 | 13 | 1,700 L/mol × 10^6 | 2.8 | 
7 | Cl.Cn1c(C(=O)NC(Cc2ccccc2)C(=O)N2CCCC2C(=O)NC(C=O)CCCN=C(N)N)cc2ccccc21 [Example 1, NMI-D-Phe-Pro-Arg-H.HCl] | 870 ng/mL | 43 | 440 ng/mL | 120 | 2 | 7.9 | 0.51 | 850 L/mol × 10^6 | 31 | 
8 | CC(C)S(=O)(=O)N[C@H](Cc1ccccc1)C(=O)N1CCC[C@H]1C(=O)N[C@H](C=O)CCCNC(=N)N.Cl [Example 11, i-Pr-SO2 -D-Phe-Pro-Arg-H-HCl] | 510 ng/mL | 13 | 270 ng/mL | 260 | 10 | 25 | 6.0 | 460 L/mol × 10^6 | 3.5 | 
9 | CN(C)S(=O)(=O)N[C@H](Cc1ccccc1)C(=O)N1CCC[C@H]1C(=O)N[C@H](C=O)CCCNC(=N)N.Cl [Example 12, Me2 NSO2 -D-Phe-Pro-Arg-H.HCl] | 480 ng/mL | 46 | 360 ng/mL | 160 | 26 | 21 | 3.9 | 300 L/mol × 10^6 |  | 100
